Experimental data reported in patent publication US20210386761A1, “COMPOSITION FOR PREVENTING OR TREATING INFLAMMATORY BOWEL DISEASE, CONTAINING, AS ACTIVE INGREDIENT, TAURODEOXYCHOLIC ACID OR PHARMACEUTICALLY ACCEPTABLE SALT THEREOF” (SHAPERON INC., priority 2019, published 2021).

How the values were obtained:
IL-1β = assay: Pro-inflammatory cytokine ELISA of colon tissue, IL-1β; assay type: in vivo, mouse; conditions: for IL-1β in the colon tissue: Day 7
Experimental: (§1) In order to evaluate the clinical symptoms-improving efficacy in comparison with those by clinical prescription drugs, inflammatory bowel disease was induced by 7-day or repeated administration of 3% or 2.5% DSS solution, and tofacitinib 10 mg/kg, 5-ASA 100 mg/kg or 200 mg/kg, prednisolone 1 mg/kg, and TDCA 2.5 mg/kg were administered one time a day from the start date of DSS administration. From the start date of DSS administration, TDCA 2.5 mg/kg was administered one time a day (QD), two times a day (BID), and three times a day (TID).
(§2) A colon was obtained from a mouse which had been subjected to an experiment by the same method as that described in <Example 2>, the peripheral colon was cut into 2 cm in length and the weight was recorded. Next, the colon was chopped into 1 mm pieces and frozen on ice, treated with 500 μl of cold DPBS containing protease inhibitor (Roche, 11836170001, Basel, Switzerland), and homogenized for 10 to 20 seconds using an electric homogenizer (IKA T10 Basic, Wilmington, SE, USA). The homogenate was centrifuged at 4° C. for 10 minutes at 12,000×g to obtain a supernatant. ELISA analysis was performed using the obtained supernatant, IL-6 DuoSet ELISA kit (R & D systems, USA), IL-1β DuoSet ELISA kit (R & D systems, USA), and TNF-α DuoSet ELISA kit (R & D systems, USA) according to the manufacturer's procedure to confirm the production of pro-inflammatory cytokines.
(§3) Specifically, female C57BL/6 mice were fed with a 2% DSS solution together with drinking water for 7 days from Day 0 of the experiment by the same method as that described in <Example 1>, DPBS or 5 mg/kg TDCA was administered to the mice by oral gavage one time a day for 6 days from Day 1 of the experiment, and the body weight and DAI were measured daily. As a control, mice freely fed with drinking water were used. Next, the mice were sacrificed on Day 7 of the experiment by the same method as that described in <Example 3>, and inflammatory cell and proinflammatory cytokine analysis was performed.
as §3, with “oral gavage from Day” for “oral gavage one time a day for 6 days from Day”, “1 of DSS administration or 2 days before DSS administration, and the” for “1 of the experiment, and the”, “3>, and the inflammatory cell” for “3>, and inflammatory cell”

TNF-α = assay: Pro-inflammatory cytokine ELISA of colon tissue, TNF-α; assay type: in vivo, mouse; conditions: for TNF-α in the colon tissue: Day 7, FIG. 7B
Experimental: as §1, §2
as §3, with “oral gavage from Day” for “oral gavage one time a day for 6 days from Day”, “1 of DSS administration or 2 days before DSS administration, and the” for “1 of the experiment, and the”, “3>, and the inflammatory cell” for “3>, and inflammatory cell”

[1] = tested on: lamina propria mononuclear cells (LPMC) in the colon tissue; assay: Inflammatory cell analysis (FACS of LPMC from colon tissue) in 2% DSS mouse model; assay type: in vivo; conditions: Day 7; for numbers of CD11b+, Ly6g+, Ly6c+, CD3+, CD4+, CD8+, CD19+, and MHCII+CD11c+ LPMCs in the colon tissue: FIG. 7A
Experimental: A colon tissue was obtained from a mouse which had been subjected to an experiment by the same method as that described in <Example 2> and put into 30 ml of EDTA and dissociated by being stirred at 37° C. for 30 minutes in order to remove mucus. Next, the tissue was drained with a strainer (70 μm) and washed with warm DPBS. The washing process was repeated a total of 4 to 5 times. An enzyme mixture was prepared by adding 2.35 ml of RPMI 1640 or DMEM, 100 μl of enzyme D, 50 μl of enzyme R, and 12.5 μl of enzyme A to a gentleMACS C tube (Miltenyi Biotec, 130-096-334, Bergisch Gladbach, Germany). The tissue was transferred to the gentleMACS C tube containing the enzyme mixture and dissociated using the gentleMACS Dissociator (Miltenyi Biotec, 130-093-235, Bergisch Gladbach, Germany). Next, the reaction was conducted at 37° C. for 40 minutes in a thermal incubator (Thermo scientific, BB-15, Waltham, Mass., USA) under continuous rotation using a MACSmix Tube Rotator. The digested cells were resuspended in 4 ml of 40% Percoll solution. […]
In order to confirm changes in the number of inflammatory cells, FACS analysis was performed. […] Next, the cells were washed two times with DPBS, resuspended in 200 μl DAPI, then analyzed using a flow cytometer (LSR Fortessa cytometer, Mississauga, Canada), and graphed.
(§4) Specifically, female C57BL/6 mice were fed with a 2% DSS solution together with drinking water for 7 days from Day 0 of the experiment by the same method as that described in <Example 1>, DPBS or 5 mg/kg TDCA was administered to the mice by oral gavage one time a day for 6 days from Day 1 of the experiment, and the body weight and DAI were measured daily. […]
as §4, with “gavage” for “gavage one time a day for 6 days”, “DSS administration or 2 days before DSS administration,” for “the experiment,”

[2] = 3% DSS 7 days, TDCA 2.5 mg/kg vs tofacitinib 10 mg/kg and 5-ASA 100 mg/kg
[3] = DSS+TDCA group: 5 mg/kg TDCA from Day 1 of DSS
[4] = DSS+preTDCA group: 5 mg/kg TDCA from 2 days before DSS

## C[C@H](CCC(=O)NCCS(=O)(=O)O)[C@H]1CC[C@H]2[C@@H]3CC[C@@H]4C[C@H](O)CC[C@]4(C)[C@H]3C[C@H](O)[C@]12C [TDCA, sodium taurodeoxycholic acid]
IL-1β; 2% DSS 7 days, 5 mg/kg TDCA oral gavage, FIG. 3B
  IL-1β in the colon tissue: decreased
IL-1β; [2]
  concentration of IL-1β in the colon tissue, compared with clinical prescription drugs: more effectively suppressed the concentration of IL-1β than tofacitinib 10 mg/kg and 5-ASA 100 mg/kg
IL-1β; DSS+TDCA group: 5 mg/kg TDCA from Day 1 of DSS, FIG. 7B
  IL-1β in the colon tissue: decreased
IL-1β; DSS+preTDCA group: 5 mg/kg TDCA from 2 days before DSS, FIG. 7B
  IL-1β in the colon tissue: decreased
TNF-α; [2]
  concentration of TNF-α in the colon tissue, compared with clinical prescription drugs: equivalent to those by tofacitinib 10 mg/kg and 5-ASA 100 mg/kg
TNF-α; [3]
  TNF-α in the colon tissue: decreased
TNF-α; [4]
  TNF-α in the colon tissue: decreased
[1]; 2% DSS 7 days, 5 mg/kg TDCA oral gavage, vs DSS+DPBS group, FIG. 3A
  numbers of CD11b+, Ly6g+, and Ly6c+ LPMCs in the colon tissue: decreased
[1]; [3]
  numbers of CD11b+, Ly6g+, Ly6c+, CD3+, CD4+, CD8+, CD19+, and MHCII+CD11c+ LPMCs in the colon tissue: decreased
[1]; [4]
  numbers of CD11b+, Ly6g+, Ly6c+, CD3+, CD4+, CD8+, CD19+, and MHCII+CD11c+ LPMCs in the colon tissue: decreased
